Square brackets hold non-standard residues; d marks the D form. Peptide text beside a SMILES is read from it. Cya = N[C@@H](CS(=O)(=O)O)C(=O)O
What was measured:
[1] = tested on: study eye of subjects with intermediate non-exudative AMD; assay: Low-luminance visual acuity; type: in vivo, human
Method: (§1) Numerous study assessments were conducted at various time points throughout the study. Included among these study assessments were; refractive eye examinations, determinations of BCVA AND low-luminance BCVA, Lanthony D-15 color vision test, measurement of intraocular pressure (IOP), Indirect ophthalmoscopy/dilated fundus examinations and spectral-domain optical coherence tomography (SD-OCT). Also, blood and saliva samples were obtained from each subject for genetic analysis. The above-listed study assessments were performed at the time points indicated in Table 1, below: Table 10, below, summarizes low-luminescence visual acuity in the study subjects.

[2] = tested on: study eye of subjects with intermediate non-exudative AMD; assay: Microperimetry (mean retinal sensitivity, number of loci summed); type: in vivo, human
Excerpt: Table 9, below, summarizes number of loci with reduced retinal sensitivity summed across assessments using a 20-dB threshold, an 11-dB threshold, and by measuring absolute scotoma.

[3] = tested on: human retinal Müller cells (MIO-M1); assay: MTT cell viability of human Müller cells (MIO-M1); type: cell-based; conditions: 24 hours, normalized to untreated control as 100%
Method: Purpose: To determine the effects of risuteganib and anti-VEGF drugs on the cell viability of cultured human retinal Müller cells (MIO-M1).
Methods: The immortalized human retinal Müller cell line (MIO-M1) was obtained from the Department of Cell Biology of the University College, London. Cells were cultured in Dulbecco's Modified Eagle's Medium (DMEM) and plated in 96-well plates for 24 hours before treatment with 0.5×, 1× or 2× concentrations of 1 mg/50 μL risuteganib, or 1× of ranibizumab, bevacizumab or aflibercept. Dosage was based on clinical dose of each compound. The experiments were repeated 3 times with 7-8 replicates each. After 24 hours of drug treatment, MTT NAD(P)H-dependent colorimetric assay was used to assess the number of viable cells present in the cultures. Absorbance ratios were normalized to untreated control as 100%. Statistical analysis was performed in GraphPad Prism software program.

[4] = tested on: human retinal Müller cells (MIO-M1); assay: Reactive oxygen species level in human Müller cells (MIO-M1); type: cell-based; conditions: 1× concentration (clinical dose), 24 hours
Method: Purpose: To determine the effects of risuteganib and anti-VEGF drugs on reactive oxygen species (ROS) levels in cultured human retinal Müller cells (MIO-M1). Elevated ROS levels can disrupt normal cellular functions, leading to reduced cell health and possible cell death.
Methods: The immortalized human retinal Müller cell line (MIO-M1) was obtained from the Department of Cell Biology of the University College, London. Cells were cultured in Dulbecco's Modified Eagle's Medium (DMEM) and plated in 24-well plates for 24 hours before treatment with 1× concentration of 1 mg/50 μL ALG-1001, ranibizumab, bevacizumab, or aflibercept. Dosage was based on clinical dose of each compound. The experiments were repeated 3 times with 6 replicates each. After 24 hours drug treatment, ROS level was measured using the fluorescent dye 2′,7′-dichlorodihydrofluorescein diacetate. The signals were read using the Biotek Synergy HT plate reader with EX filter in 482 nm and EM filter in 520 nm. Results were normalized to untreated control as 100%. Statistical analysis was performed in GraphPad Prism software program.

[5] = tested on: study eye of subjects with intermediate non-exudative AMD; assay: Lanthony D-15 color vision test (Total Error Score Hue Style) in Dry AMD study; type: in vivo, human; parameters: Color vision Total Error Score Hue Style, mean / Color vision Total Error Score Hue Style, median / Color vision Total Error Score Hue Style change, median: scale not given here
Method: as §1, with “The results of color vision testing of” for “Table 10, below, summarizes low-luminescence visual acuity in”, “subjects are summarized in Table 5, below.” for “subjects.”

[6] = tested on: study eye of subjects with intermediate non-exudative AMD; assay: Microperimetry (mean retinal sensitivity, number of loci summed); type: in vivo, human; remark: listed apart in the source
[7] = tested on: primary mouse Müller cells; assay: Trypan blue viability of primary mouse Müller cells exposed to kainic acid; type: cell-based, CD1 mice; conditions: 1.0 mg/mL risuteganib alone
Excerpt: Purpose: Investigate neuroprotective properties of risuteganib in primary mouse Müller cells exposed to kainic acid, a neuroexcitatory compound that activates glutamate receptors, resulting in overstimulation and cell death. Retinal Müller cells support normal functions of neurons and their dysregulation can leads to loss of homeostasis and neuronal cell death.
Methods: Fresh retina were collected from CD1 mice and then mechanically dissociated with sterile Pasteur pipette into small aggregates and seeded into 35 mm culture dishes. All cultures were first left unchanged for 5-6 days and then replenished every 3-4 days. When the cell growth had reached around 80% confluency, retinal aggregates and debris were removed by media washes to form a purified cell monolayer. Cells were then exposed to the experimental conditions: (1) untreated control, (2) 1.0 mg/mL risuteganib, (3) 500 μM kainic acid (KA), and (4) 1.0 mg/mL risuteganib for 24 hours before 500 μM kainic acid exposure. 48 hours after kainic acid treatment, dead and live cell numbers were measured using Trypan blue exclusion assay on a hemocytometer.

[8] = Week 12, Group 2 (1 mg IVT day 1 + wk 16)
[9] = Week 12 change, Group 2 (1 mg IVT day 1 + wk 16)
[10] = Week 32, Group 1 crossover (sham day 1, 1 mg IVT wk 16)
[11] = Week 32, Group 2 (1 mg IVT day 1 + wk 16)
[12] = Week 32 change, Group 1 crossover (sham day 1, 1 mg IVT wk 16)
[13] = Week 32 change, Group 2 (1 mg IVT day 1 + wk 16)

Compound: C[C@@H](O)[C@H](NC(=O)[C@H](CS(=O)(=O)O)NC(=O)CNC(=O)[C@H](CCCNC(=N)N)NC(=O)CN)C(=O)N1CCC[C@H]1C(=O)O [risuteganib, Glycyl-L-arginylglycyl-3-sulfo-L-alanyl-L-threonyl-L-proline] (H-GRG[Cya]TP-OH)
- Low-luminance visual acuity letters read, mean [1, 8]: 46.4 letters read
- Low-luminance visual acuity letters read, median [1, 8]: 48.0 letters read
- Low-luminance visual acuity change in letters read, median [1, 9]: −1.0 letters read
- Low-luminance visual acuity letters read, mean [1, 10]: 50.7 letters read
- Low-luminance visual acuity letters read, median [1, 10]: 57.0 letters read
- Low-luminance visual acuity letters read, mean [1, 11]: 49.4 letters read
- Low-luminance visual acuity letters read, median [1, 11]: 51.0 letters read
- Low-luminance visual acuity change in letters read, mean [1, 12]: 2.6 letters read
- Low-luminance visual acuity change in letters read, median [1, 12]: 3.0 letters read
- Low-luminance visual acuity change in letters read, mean [1, 13]: 2.0 letters read
- Low-luminance visual acuity change in letters read, median [1, 13]: 0.0 letters read
- Microperimetry number of loci summed change, median [2, 9]: 4.0
- Microperimetry number of loci summed change, mean ([2]; Week 12 change, Group 2 (1 mg IVT day 1 + wk 16), increase = worsening): 6.1
- Microperimetry number of loci summed (reduced sensitivity), mean [2, 11]: 80.7
- Microperimetry number of loci summed change, median [2, 12]: −1.0
- Microperimetry number of loci summed change, median [2, 13]: −3.0
- Decrease (improvement) in number of summed loci with reduced retinal sensitivity ([2]; risuteganib responders at Week 32 (FIG. 7)): 17.75
- Cell viability (MTT) ([3]; 0.5× of 1 mg/50 μL): 111.3±2.189
- Cell viability (MTT) ([3]; 1× of 1 mg/50 μL): 113.5±13.5
- Cell viability (MTT) ([3]; 2× of 1 mg/50 μL): 100.3±7.8
- Change in ROS level compared to untreated control [4]: −19%
- Color vision Total Error Score Hue Style, mean [5, 8]: 43.38
- Color vision Total Error Score Hue Style, median [5, 8]: 39.67
- Color vision Total Error Score Hue Style change, median ([5]; Week 12 change from screening, Group 2 (1 mg IVT day 1 + wk 16)): 2.67
- Color vision Total Error Score Hue Style change, mean ([5]; Week 12 change from screening, Group 2 (1 mg IVT day 1 + wk 16), increase = worsening): 2.41
- Color vision Total Error Score Hue Style, mean [5, 10]: 48.76
- Color vision Total Error Score Hue Style, median [5, 10]: 42.00
- Color vision Total Error Score Hue Style, mean [5, 11]: 39.88
- Color vision Total Error Score Hue Style, median [5, 11]: 24.09
- Color vision Total Error Score Hue Style change, median ([5]; Week 32 change from screening, Group 2 (1 mg IVT day 1 + wk 16)): −3.17
- Color vision Total Error Score Hue Style change, median [5, 12]: 1.34
- Decrease (improvement) in color vision total error score ([5]; risuteganib responders at Week 32 (FIG. 3)): 13.03
- Microperimetry mean sensitivity, mean [6, 8]: 7.52 dB
- Microperimetry mean sensitivity, median [6, 8]: 7.50 dB
- Microperimetry number of loci summed (reduced sensitivity), mean [6, 8]: 84.9
- Microperimetry number of loci summed (reduced sensitivity), median [6, 8]: 86.5
- Microperimetry mean sensitivity change, median [6, 9]: −1.50 dB
- Microperimetry mean sensitivity, mean [6, 10]: 11.44 dB
- Microperimetry mean sensitivity, median [6, 10]: 13.70 dB
- Microperimetry number of loci summed (reduced sensitivity), mean [6, 10]: 67.6
- Microperimetry number of loci summed (reduced sensitivity), median [6, 10]: 60.0
- Microperimetry mean sensitivity, mean [6, 11]: 8.25 dB
- Microperimetry mean sensitivity, median [6, 11]: 8.50 dB
- Microperimetry number of loci summed (reduced sensitivity), median [6, 11]: 79.5
- Microperimetry mean sensitivity change, median [6, 12]: −0.20 dB
- Microperimetry number of loci summed change, mean [6, 12]: 7.9
- Microperimetry mean sensitivity change, median [6, 13]: −0.40 dB
- Microperimetry number of loci summed change, mean [6, 13]: 1.0
- Increase (improvement) in mean retinal sensitivity ([6]; risuteganib responders at Week 32 (FIG. 5)): 2.2 dB
- Change in cell viability, treatment alone [7]: did not induce detectable change in cell viability

From patent US20220031800A1, “PEPTIDES FOR TREATING NON-EXUDATIVE MACULAR DEGENERATION AND OTHER DISORDERS OF THE EYE” (Allegro Pharmaceuticals, LLC, priority 2019, published 2022)
